# ChEMBL document CHEMBL4265917, “Antibacterial and antioxidant activities for natural and synthetic dual-active compounds” (Eur J Med Chem, 2018)
# Key:
# [1] = Antioxidant activity assessed as DPPH free radical scavenging activity; format: functional
# Staphylococcus aureus [2] = experiment: Antibacterial activity against methicillin-resistant Staphylococcus aureus; format: functional
# Staphylococcus aureus [3] = experiment: Antibacterial activity against methicillin-resistant Staphylococcus aureus after 24 hrs by microbroth dilution method; format: functional
# [4] = Antioxidant activity assessed as DPPH free radical scavenging activity incubated for 30 mins in dark condition; format: functional
# Staphylococcus aureus [5] = experiment: Antibacterial activity against Staphylococcus aureus after 16 hrs by broth microdilution method; format: functional
# Escherichia coli [6] = experiment: Antibacterial activity against Escherichia coli after 16 hrs by broth microdilution method; format: functional
# [7] = Antioxidant activity assessed as DPPH free radical scavenging activity incubated for 30 min by UV-vis spectrophotometric analysis; format: functional
# Escherichia coli [8] = experiment: Antibacterial activity against Escherichia coli K-12 MG1655 assessed as bacterial growth inhibition after 24 hrs by serial dilutoin method; format: functional; settings: K-12 substr. MG1655, 24 h
# Staphylococcus aureus [9] = experiment: Bactericidal activity against Staphylococcus aureus incubated for 24 hrs measured every 30 mins by spectrophotometric analysis; format: functional
# Escherichia coli [10] = experiment: Antibacterial activity against Escherichia coli KCTC 1924 after 20 to 36 hrs by disc diffusion method; format: functional
# Staphylococcus aureus [11] = experiment: Antibacterial activity against Staphylococcus aureus KCTC 1916 after 20 to 36 hrs by disc diffusion method; format: functional
# Bacillus subtilis [12] = experiment: Antibacterial activity against Bacillus subtilis ATCC 11562 by colorimetric based broth dilution method; format: functional, organism-based
# [13] = system: Pseudomonas amygdali pv. lachrymans; experiment: Antibacterial activity against Pseudomonas syringae pv. lachrymans ATCC 11921 by colorimetric based broth dilution method; format: functional, organism-based
# Staphylococcus aureus [14] = experiment: Antibacterial activity against Staphylococcus aureus after 17 hrs by NCCLS broth microdilution method; format: functional
# Campylobacter jejuni = experiment: Antibacterial activity against Campylobacter jejuni after 17 hrs by NCCLS broth microdilution method; format: functional
# [15] = Antioxidant activity assessed as reduction of Fe3+-TPTZ to Fe2+-TPTZ by measuring trolox equivalence of antioxidant capacity by FRAP assay; format: functional
# Salmonella typhimurium = experiment: Antibacterial activity against Salmonella typhimurium after 17 hrs by NCCLS broth microdilution method; format: functional, Salmonella enterica subsp. enterica serovar Typhimurium; settings: Salmonella enterica
# Escherichia coli [16] = experiment: Antibacterial activity against Escherichia coli after 17 hrs by NCCLS broth microdilution method; format: functional
# Staphylococcus aureus [17] = experiment: Antibiofilm activity against methicillin-resistant Staphylococcus aureus at 100 ug/ml after 18 hrs by crystal violet staining-based method relative to control; format: functional
# [18] = system: Aliarcobacter cryaerophilus; experiment: Antibacterial activity against Arcobacter cryaerophilus after 17 hrs by NCCLS broth microdilution method; format: functional
# [19] = Antioxidant activity assessed as trolox equivalent of AAPH-induced radical scavenging activity preincubated for 30 mins followed by […] challenge measured every 1.14 mins for 120 mins by ORAC-FL assay; format: functional
# Bacillus cereus = experiment: Antibacterial activity against Bacillus cereus after 17 hrs by NCCLS broth microdilution method; format: functional
# Staphylococcus aureus [20] = experiment: Antibiofilm activity against methicillin-resistant Staphylococcus aureus at 150 ug/ml after 18 hrs by crystal violet staining-based method relative to control; format: functional
# [21] = Antioxidant activity assessed as ABTS radical scavenging activity by measuring trolox equivalence of antioxidant capacity at 1 uM up to 24 hrs by spectrophotometric analysis; format: functional
# Vibrio cholerae = experiment: Antibacterial activity against Vibrio cholerae after 17 hrs by NCCLS broth microdilution method; format: functional
# Aliarcobacter butzleri = experiment: Antibacterial activity against Arcobacter butzleri after 17 hrs by NCCLS broth microdilution method; format: functional
# Listeria monocytogenes = experiment: Antibacterial activity against Listeria monocytogenes after 17 hrs by NCCLS broth microdilution method; format: functional
# Bacillus subtilis [22] = experiment: Antibacterial activity against Bacillus subtilis after 17 hrs by NCCLS broth microdilution method; format: functional
# Campylobacter coli = experiment: Antibacterial activity against Campylobacter coli after 17 hrs by NCCLS broth microdilution method; format: functional
smiles,measurement,setting,value
COc1cc(/C=C/C(=O)CC(=O)/C=C/c2ccc(O)c(OC)c2)ccc1O [CURCUMIN],IC50,[1],28 µg/mL
same,MIC,Staphylococcus aureus [2],125 to 250 µg/mL
COc1cc(/C=C/c2cc(/C=C/c3ccc(OCC(=O)Nc4ccc(F)cc4)c(OC)c3)[nH]n2)ccc1OCC(=O)Nc1ccc(F)cc1,MIC,Staphylococcus aureus [3],10 to 20 µg/mL
Cc1c(-c2cc(-c3ccc(F)cc3)nc(N)n2)nnn1-c1ccc(Cl)c(Cl)c1,IC50,[4],59.07 µg/mL
COc1cc(/C=C/c2cc(/C=C/c3ccc(OCC(=O)Nc4cccc(C(F)(F)F)c4)c(OC)c3)[nH]n2)ccc1OCC(=O)Nc1cccc(C(F)(F)F)c1,MIC,Staphylococcus aureus [3],10 to 20 µg/mL
COc1cc(/C=C/c2cc(/C=C/c3ccc(OCC(=O)Nc4ccccc4)c(OC)c3)[nH]n2)ccc1OCC(=O)Nc1ccccc1,MIC,Staphylococcus aureus [3],10 to 20 µg/mL
COc1cc(/C=C/c2cc(/C=C/c3ccc(OCC(=O)Nc4cccc(C(C)=O)c4)c(OC)c3)[nH]n2)ccc1OCC(=O)Nc1cccc(C(C)=O)c1,MIC,Staphylococcus aureus [3],10 to 20 µg/mL
Cc1ccc(C(C)C)c(O)c1 [THYMOL],MIC,Staphylococcus aureus [5],2.5 µg/mL
same,MIC,Escherichia coli [6],2.5 µg/mL
COc1ccccc1NC(=O)COc1ccc(/C=C/c2cc(/C=C/c3ccc(OCC(=O)Nc4ccccc4OC)c(OC)c3)[nH]n2)cc1OC,MIC,Staphylococcus aureus [3],10 to 20 µg/mL
COc1cc(/C=C/c2cc(/C=C/c3ccc(OCC(=O)Nc4ccc(C)cc4)c(OC)c3)[nH]n2)ccc1OCC(=O)Nc1ccc(C)cc1,MIC,Staphylococcus aureus [3],10 to 20 µg/mL
O=C(/C=C/c1ccc(O)c(O)c1)O[C@H](Cc1ccc(O)c(O)c1)C(=O)O [ROSMARINIC ACID],IC50,[7],0.4 µg/mL
same,MIC,Escherichia coli [8],250 µg/mL
COc1cc(/C=C/c2cc(/C=C/c3ccc(OCC(=O)NCc4ccccc4)c(OC)c3)[nH]n2)ccc1OCC(=O)NCc1ccccc1,MIC,Staphylococcus aureus [3],10 to 20 µg/mL
COc1ccccc1O [GUAIACOL],IC50,[1],4.1 µg/mL
same,MBC,Staphylococcus aureus [9],≥ 15 mM
Oc1ccc2cc(Br)ccc2c1-c1c[nH]c2ccccc12,EC50,[7],3.8 µg/mL
same,MIC,Escherichia coli [10],5.32 µg/mL
same,MIC,Staphylococcus aureus [11],14.8 µg/mL
COc1cc(O)c2c(=O)oc3c(O)c(O)cc(C)c3c2c1,IC50,Bacillus subtilis [12],29 µM
same,IC50,[13],7 µM
same,EC50,[4],68.3 µM
Oc1ccc(/C=C/c2cc(O)cc(O)c2)cc1 [RESVERATROL],MIC,Staphylococcus aureus [14],16.5 to 260 µg/mL
same,MIC,Campylobacter jejuni,0.625 to 521 µg/mL
same,Activity,[15],0.47 mM
same,MIC,Salmonella typhimurium,0.625 to 521 µg/mL
same,MIC,Escherichia coli [16],0.625 to 521 µg/mL
same,inhibition at 100 µg/mL,Staphylococcus aureus [17],39.9%
same,MIC,[18],0.625 to 521 µg/mL
same,Activity,[19],3.67 mM
same,MIC,Bacillus cereus,16.5 to 260 µg/mL
same,inhibition at 150 µg/mL,Staphylococcus aureus [20],23.4%
same,Activity,[21],1.57 mM
same,MIC,Vibrio cholerae,0.625 to 521 µg/mL
same,MIC,Aliarcobacter butzleri,0.625 to 521 µg/mL
same,MIC,Listeria monocytogenes,16.5 to 260 µg/mL
same,MIC,Bacillus subtilis [22],16.5 to 260 µg/mL
same,MIC,Campylobacter coli,0.625 to 521 µg/mL
C=CCc1ccc(O)c(OC)c1 [EUGENOL],MIC,Staphylococcus aureus [5],2.5 µg/mL
same,MIC,Escherichia coli [6],2.5 µg/mL
